Patent publication US20180007899A1, “HERBICIDAL COMPOSITIONS COMPRISING OXYFLUORFEN AND HALOXYFOP” (Dow AgroSciences LLC, priority 2012, published 2018)

Columns and labels:
Assay in all cases: Post-emergence field trial in onion, visual weed control
Format in all cases: in vivo
[1] = test system: common ragweed (Ambrosia artemisiifolia L.), AMBEL; conditions: 15 days after application
Experimental: (§1) Multiple post-emergence field trials were conducted under field conditions in Colombia, Peru and Ecuador. Trial sites were located in commercially grown fields of onion (Allium spp) using standard herbicide small plot research methodology. Post-emergence trial plot size varied from 0.4 to 2 meter (m)×5 to 25 m (width×length) with 4 replicates per treatment. The onion crop was grown using normal cultural practices for fertilization, seeding, watering and maintenance to ensure good growth of the crop and the weeds.
(§2) All treatments in the post-emergence field trials were applied using a backpack compressed carbon dioxide (CO2) sprayer with flat fan nozzles calibrated to apply 400 liters per hectare (L/ha) spray volume at approximately 35 pounds per square inch (psi) nozzle pressure. Commercially available products of oxyfluorfen (GOAL® 480SC 480 grams active ingredient per liter (g ai/L) and haloxyfop-methyl (VERDICT R® 42 g ai/L) were mixed in water at appropriate formulated product rates to achieve the desired rates based on a unit area of application (hectare). Treatments were rated at 7 to 31 days after application (DAA) as compared to the untreated control plants. Visual weed control was scored on a scale of 0 to 100 percent where 0 corresponds to no injury and 100 corresponds to complete kill.
(§3) All treatment results, both for the single product and mixtures, are an average of 4 replicates. The trial sites had naturally occurring populations of weeds. The weed spectrum included, but was not limited to, AMBEL, BIDPI, BRSRA, GASPA, ELEIN, LOLTE, POANN, and SETVE.
(§4) Colby's equation was used to determine the herbicidal effects expected from the mixtures (Colby, S. R. Calculation of the synergistic and antagonistic response of herbicide combinations. Weeds 1967, 15, 20-22.).
(§5) The following equation was used to calculate the expected activity of mixtures containing two active ingredients, A and B:
(§6) A=observed efficacy of active ingredient A at the same concentration as used in the mixture.
(§7) B=observed efficacy of active ingredient B at the same concentration as used in the mixture.

[2] = test system: birdsrape mustard (Brassica rapa), BRSRA
Experimental: as §1, §2, §3, §4, §5, §6, §7

[3] = test system: hairy beggarticks (Bidens pilosa), BIDPI
Experimental: as §1, §2, §3, §4, §5, §6, §7

[4] = test system: poison ryegrass (Lolium temulentum), LOLTE; conditions: 15 days after application
Experimental: as §1, §2, §3, §4, §5, §6, §7

[5] = test system: smallflower galinsoga (Galinsoga parviflora), GASPA; conditions: 15 days after application
Experimental: as §1, §2, §3, §4, §5, §6, §7

[6] = test system: bristly foxtail (Setaria verticillata), SETVE; conditions: 7 days after application
Experimental: as §1, §2, §3, §4, §5, §6, §7

[7] = test system: annual bluegrass (Poa annua L.), POAAN; conditions: 15 days after application
Experimental: as §1, §2, §3, §4, §5, §6, §7

[8] = test system: goosegrass (Eleusine indica), ELEIN; conditions: 7 days after application
Experimental: as §1, §2, §3, §4, §5, §6, §7

[9] = oxyfluorfen 0, haloxyfop-methyl 42 g ai/ha, foliar
[10] = 16 days after application, oxyfluorfen 0, haloxyfop-methyl 42 g ai/ha, foliar
[11] = 31 days after application, oxyfluorfen 0, haloxyfop-methyl 42 g ai/ha, foliar
[12] = oxyfluorfen 120 g ai/ha, haloxyfop-methyl 0, foliar
[13] = oxyfluorfen 240 g ai/ha, haloxyfop-methyl 0, foliar
[14] = oxyfluorfen 360 g ai/ha, haloxyfop-methyl 0, foliar
[15] = 16 days after application, oxyfluorfen 120 g ai/ha, haloxyfop-methyl 0, foliar
[16] = 16 days after application, oxyfluorfen 240 g ai/ha, haloxyfop-methyl 0, foliar
[17] = 16 days after application, oxyfluorfen 360 g ai/ha, haloxyfop-methyl 0, foliar
[18] = 31 days after application, oxyfluorfen 120 g ai/ha, haloxyfop-methyl 0, foliar
[19] = 31 days after application, oxyfluorfen 240 g ai/ha, haloxyfop-methyl 0, foliar
[20] = 31 days after application, oxyfluorfen 360 g ai/ha, haloxyfop-methyl 0, foliar

COC(=O)C(C)Oc1ccc(Oc2ncc(C(F)(F)F)cc2Cl)cc1 (stereo not drawn) [Haloxyfop-methyl]
Visual Control (%) Obs [1, 9]: 6%
Visual Control (%) Obs [2, 10]: 0%
Visual Control (%) Obs [2, 11]: 0%
Visual Control (%) Obs [3, 10]: 0%
Visual Control (%) Obs [3, 11]: 0%
Visual Control (%) Obs [4, 9]: 4%
Visual Control (%) Obs [5, 9]: 6%
Visual Control (%) Obs [6, 9]: 77%
Visual Control (%) Obs [7, 9]: 5%
Visual Control (%) Obs [8, 9]: 6%

CCOc1cc(Oc2ccc(C(F)(F)F)cc2Cl)ccc1[N+](=O)[O-] [Oxyfluorfen, 2-chloro-1-(3-ethoxy-4-nitrophenoxy)-4-(trifluoromethyl)benzene]
Visual Control (%) Obs [1, 12]: 21%
Visual Control (%) Obs [1, 13]: 22%
Visual Control (%) Obs [1, 14]: 22%
Visual Control (%) Obs [2, 15]: 70%
Visual Control (%) Obs [2, 16]: 74%
Visual Control (%) Obs [2, 17]: 85%
Visual Control (%) Obs [2, 18]: 74%
Visual Control (%) Obs [2, 19]: 79%
Visual Control (%) Obs [2, 20]: 86%
Visual Control (%) Obs [3, 15]: 49%
Visual Control (%) Obs [3, 16]: 56%
Visual Control (%) Obs [3, 17]: 69%
Visual Control (%) Obs [3, 18]: 54%
Visual Control (%) Obs [3, 19]: 61%
Visual Control (%) Obs [3, 20]: 69%
Visual Control (%) Obs [4, 12]: 21%
Visual Control (%) Obs [4, 13]: 22%
Visual Control (%) Obs [4, 14]: 22%
Visual Control (%) Obs [5, 12]: 49%
Visual Control (%) Obs [5, 13]: 47%
Visual Control (%) Obs [5, 14]: 45%
Visual Control (%) Obs [6, 14]: 70%
Visual Control (%) Obs [7, 12]: 45%
Visual Control (%) Obs [7, 13]: 45%
Visual Control (%) Obs [7, 14]: 47%
Visual Control (%) Obs [8, 14]: 47%
